Laboratory results reported in US11912693B2, “Compounds for modulating S1P1 activity and methods of using the same” (TREVENA, INC., priority 2017, dated 2024).

Experiments:
[1] = biological target: T1, human sphingosine-1-phosphate receptor 1 (S1P1) (Homo sapiens (Human), UniProt P21453); assay: Inhibition of cAMP production (HTRF cAMP HiRange), S1P1 CHO-K1 cells; format: cell-based; settings: for Emax: CHO-K1, efficacy (SPAN) normalized to fingolimod, read-out: hS1P1 cAMP SPAN; for hS1P1 cAMP pEC50: inhibition of cAMP production, S1P1 CHO-K1 cells
How it was run: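 CHO-K1 cells stably co-expressing human S1P1 (C-terminal Prolink tag) and EA-β-arrestin2 were grown in AssayComplete Media 6 at 37° C. and 5% CO2, plated, and incubated overnight. Agonist-driven inhibition of intracellular cAMP was read by TR-FRET with the HTRF cAMP HiRange kit on a PheraStar reader. Potency is pEC50, and efficacy (SPAN) is normalized to fingolimod.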
Target sequence in this assay (P21453 whole entry, looked up): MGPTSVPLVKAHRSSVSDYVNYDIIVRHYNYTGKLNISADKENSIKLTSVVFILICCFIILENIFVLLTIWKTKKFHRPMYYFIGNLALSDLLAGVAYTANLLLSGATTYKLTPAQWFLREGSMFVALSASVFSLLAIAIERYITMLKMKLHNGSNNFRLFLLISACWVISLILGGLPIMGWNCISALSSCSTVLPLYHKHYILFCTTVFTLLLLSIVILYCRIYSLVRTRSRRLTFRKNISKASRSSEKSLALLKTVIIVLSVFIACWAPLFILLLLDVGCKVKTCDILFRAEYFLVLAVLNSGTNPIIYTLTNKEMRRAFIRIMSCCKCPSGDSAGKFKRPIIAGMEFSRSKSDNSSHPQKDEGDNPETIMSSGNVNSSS

[2] = biological target: T1, human sphingosine-1-phosphate receptor 1 (S1P1); assay: β-Arrestin2 recruitment assay (PathHunter), S1P1 CHO-K1 cells; format: cell-based; settings: for Emax: CHO-K1, efficacy (SPAN) normalized to fingolimod, read-out: hS1P1 B-arrestin2 SPAN; for hS1P1 B-arrestin2 pEC50: β-arrestin2 recruitment, S1P1 CHO-K1 cells
How it was run: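 Enzyme-fragment complementation read-out: agonist-driven β-arrestin2 binding to ProLink-tagged human S1P1 in stable CHO-K1 cells restores β-galactosidase, measured 1 h at room temperature after a 60 min 37° C. compound incubation. Potency as pEC50, efficacy relative to fingolimod (SPAN).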
Target sequence in this assay (P21453 whole entry, looked up): as above
Target sequence in this assay (P32121 whole entry partner, looked up): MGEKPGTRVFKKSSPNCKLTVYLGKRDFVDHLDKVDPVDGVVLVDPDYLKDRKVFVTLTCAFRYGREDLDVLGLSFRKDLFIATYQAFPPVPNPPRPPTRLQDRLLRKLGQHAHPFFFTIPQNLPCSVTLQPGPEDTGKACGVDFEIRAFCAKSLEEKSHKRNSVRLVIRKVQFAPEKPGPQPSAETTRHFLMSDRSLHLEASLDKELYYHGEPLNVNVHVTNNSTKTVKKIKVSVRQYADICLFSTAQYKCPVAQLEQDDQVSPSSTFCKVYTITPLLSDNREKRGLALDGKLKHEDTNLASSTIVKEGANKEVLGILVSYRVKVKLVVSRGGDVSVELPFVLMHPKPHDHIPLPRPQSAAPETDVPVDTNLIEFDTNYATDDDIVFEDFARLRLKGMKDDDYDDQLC

## CCC1(CC)CC(=O)c2cc(-c3nc(-c4ccc5sc(N)nc5c4)no3)ccc2O1 [Compound 446, 6-(3-(2-aminobenzo[d]thiazol-5-yl)-1,2,4-oxadiazol-5-yl)-2,2-diethylchroman-4-one]
[1]
  Emax: < 75%
  hS1P1 cAMP pEC50: <6.5
[2]
  Emax: < 75%
  hS1P1 B-arrestin2 pEC50: <5

## Cc1cn(C)nc1-c1noc(-c2ccc3c(c2)nnn3CC(C)(C)O)n1 [Compound 518, 1-{5-[3-(1,4-dimethyl-1H-pyrazol-3-yl)-1,2,4-oxadiazol-5-yl]-1H-1,2,3-benzotriazol-1-yl}-2-methylpropan-2-ol]
[1]
  hS1P1 cAMP pEC50: <6.5
[2]
  hS1P1 B-arrestin2 pEC50: <5

## Cc1ccccc1-c1noc(-c2cnc3c(c2)nnn3C(C)C)n1 [Compound 382, 3-(2-methylphenyl)-5-[3-(propan-2-yl)-3H-[1,2,3]triazolo[4,5-b]pyridin-6-yl]-1,2,4-oxadiazole]
[1]
  hS1P1 cAMP pEC50: >6.5
[2]
  hS1P1 B-arrestin2 pEC50: >5

## Cc1ccncc1-c1nc(-c2ccc3c(c2)nnn3C(C)(C)CO)no1 [Compound 625, 2-methyl-2-(5-(5-(4-methylpyridin-3-yl)-1,2,4-oxadiazol-3-yl)-1H-benzo[d][1,2,3]triazol-1-yl)propan-1-ol]
[1]
  Emax: < 75%
  hS1P1 cAMP pEC50: <6.5
[2]
  Emax: < 75%
  hS1P1 B-arrestin2 pEC50: <5

## CC(C)n1nnc2cc(-c3nc(-c4ccccc4Br)co3)ccc21 [Compound 183, 5-[4-(2-bromophenyl)-1,3-oxazol-2-yl]-1-(propan-2-yl)-1H-1,2,3-benzotriazole]
[1]
  Emax: > 75%
  hS1P1 cAMP pEC50: >6.5
[2]
  Emax: > 75%
  hS1P1 B-arrestin2 pEC50: >5

## Cc1cccc(-c2nc(-c3ccc4c(c3)nnn4C3CCCC3)no2)c1 [Compound 273, 3-(1-cyclopentyl-1H-benzo[d][1,2,3]triazol-5-yl)-5-(m-tolyl)-1,2,4-oxadiazole]
[1]
  hS1P1 cAMP pEC50: <6.5
[2]
  hS1P1 B-arrestin2 pEC50: <5

## COc1ccccc1-c1noc(-c2ccc3c(c2)ncn3C(C)C)n1 [Compound 373, 5-(1-isopropyl-1H-benzo[d]imidazol-5-yl)-3-(2-methoxyphenyl)-1,2,4-oxadiazole]
[1]
  hS1P1 cAMP pEC50: <6.5
[2]
  hS1P1 B-arrestin2 pEC50: <5

## CCC1(CC)CC(=O)c2cc(-c3nc(-c4cncc(C(F)(F)F)c4)no3)ccc2O1 [Compound 557, 2,2-diethyl-6-(3-(5-(trifluoromethyl)pyridin-3-yl)-1,2,4-oxadiazol-5-yl)chroman-4-one]
[1]
  hS1P1 cAMP pEC50: <6.5
[2]
  hS1P1 B-arrestin2 pEC50: >5

## Cc1ccc(-c2nc(-c3ccc4c(c3)nnn4C(C)C)no2)c(C)c1 [Compound 166, 5-(2,4-dimethylphenyl)-3-(1-isopropyl-1H-benzo[d][1,2,3]triazol-5-yl)-1,2,4-oxadiazole]
[1]
  hS1P1 cAMP pEC50: <6.5
[2]
  hS1P1 B-arrestin2 pEC50: <5

## N#Cc1cc(-c2nnc(-c3ccc4[nH]c(=O)oc4c3)o2)ccc1NCC(F)F [Compound 488, 2-[(2,2-difluoroethyl)amino]-5-[5-(2-oxo-2,3-dihydro-1,3-benzoxazol-6-yl)-1,3,4-oxadiazol-2-yl]benzonitrile]
[1]
  hS1P1 cAMP pEC50: >6.5
[2]
  hS1P1 B-arrestin2 pEC50: >5

## CCC1(CC)CC(=O)c2cc(-c3nc(-c4ccc(OC)nc4)no3)ccc2O1 [Compound 301, 2,2-diethyl-6-[3-(6-methoxy-3-pyridyl)-1,2,4-oxadiazol-5-yl]chroman-4-one]
[1]
  Emax: < 75%
  hS1P1 cAMP pEC50: <6.5
[2]
  Emax: < 75%
  hS1P1 B-arrestin2 pEC50: <5

## CCC1(CC)CC(=O)c2cc(-c3nnc(-c4ccccc4OC)o3)ccc2O1 [Compound 300, 2,2-diethyl-6-(5-(2-methoxyphenyl)-1,3,4-oxadiazol-2-yl)chroman-4-one]
[1]
  hS1P1 cAMP pEC50: <6.5
[2]
  hS1P1 B-arrestin2 pEC50: <5
